Results from patent US20100267561A1, “HERBICIDAL PYRIDAZINONE DERIVATIVES” (priority 2007, published 2010).

Tests used:
Assay type in all cases: in vivo
[1] = system: ducksalad (Heteranthera limosa); experiment: Test B flooded paddy test plant response
In short: (§1)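 2-leaf plants; pots flooded 3 cm above soil; compound added to paddy water; depth maintained. Greenhouse 13–15 d. Visual rating vs controls, 0 (no effect) to 100 (complete control); dash = no result.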

[2] = system: rice (Oryza sativa); experiment: Test B flooded paddy test plant response
In short: as §1

[3] = system: large crabgrass (Digitaria sanguinalis); experiment: Test B pre-/postemergence plant response
Source text: (§2) Seeds of plant species selected from blackgrass (Alopecurus myosuroides), downy bromegrass (Bromus tectorum), green foxtail (Setaria viridis), Italian ryegrass (Lolium multiflorum), wheat (Triticum aestivum), wild oat (Avena fatua), catchweed bedstraw (Galium aparine), bermudagrass (Cynodon dactylon), surinam grass (Brachiaria decumbens), cocklebur (Xanthium strumarium), corn (Zea mays), large crabgrass (Digitaria sanguinalis), woolly cupgrass (Eriochloa villosa), giant foxtail (Setaria faberii), goosegrass (Eleusine indica), johnsongrass (Sorghum halepense), kochia (Kochia scoparia), lambsquarters (Chenopodium album), morningglory (Ipomoea coccinea), eastern black (E.B.) nightshade (Solanum ptycanthum), yellow nutsedge (Cyperus esculentus), pigweed (Amaranthus retroflexus), common ragweed (Ambrosia elation), Russian thistle (Salsola iberica), soybean (Glycine max), common (oilseed) sunflower (Helianthus annuus), and velvetleaf (Abutilon theophrasti) were planted and treated preemergence with test chemicals formulated in a non-phytotoxic solvent mixture which included a surfactant.
(§3) At the same time, plants selected from these crop and weed species and also winter barley (Hordeum vulgare), canarygrass (Phalaris minor), chickweed (Stellaria media) and windgrass (Apera spica-venti) were treated with postemergence applications of some of the test chemicals formulated in the same manner. Plants ranged in height from 2 to 18 cm (1- to 4-leaf stage) for postemergence treatments.
(§4) Plant species in the flooded paddy test consisted of rice (Oryza sativa), umbrella sedge (Cyperus difformis), ducksalad (Heteranthera limosa) and barnyardgrass (Echinochloa crus-galli) grown to the 2-leaf stage for testing. At time of treatment, test pots were flooded to 3 cm above the soil surface, treated by application of test compounds directly to the paddy water, and then maintained at that water depth for the duration of the test. Treated plants and controls were maintained in a greenhouse for 13 to 15 days, after which time all species were compared to controls and visually evaluated. Plant response ratings, summarized in Table B, are based on a scale of 0 to 100 where 0 is no effect and 100 is complete control. A dash (-) response means no test result.

[4] = system: woolly cupgrass (Eriochloa villosa); experiment: Test B pre-/postemergence plant response
Source text: as §2, §3, §4

[5] = system: common ragweed (Ambrosia elation); experiment: Test B pre-/postemergence plant response
Source text: as §2, §3, §4

[6] = system: giant foxtail (Setaria faberii); experiment: Test B pre-/postemergence plant response
Source text: as §2, §3, §4

[7] = system: green foxtail (Setaria viridis); experiment: Test B pre-/postemergence plant response
Source text: as §2, §3, §4

[8] = system: goosegrass (Eleusine indica); experiment: Test B pre-/postemergence plant response
Source text: as §2, §3, §4

[9] = system: pigweed (Amaranthus retroflexus); experiment: Test B pre-/postemergence plant response
Source text: as §2, §3, §4

[10] = system: velvetleaf (Abutilon theophrasti); experiment: Test B pre-/postemergence plant response
Source text: as §2, §3, §4

[11] = system: eastern black (E.B.) nightshade (Solanum ptycanthum); experiment: Test B pre-/postemergence plant response; conditions: Preemergence
Source text: as §2, §3, §4

[12] = system: wild oat (Avena fatua); experiment: Test B pre-/postemergence plant response
Source text: as §2, §3, §4

[13] = system: johnsongrass (Sorghum halepense); experiment: Test B pre-/postemergence plant response
Source text: as §2, §3, §4

[14] = system: common (oilseed) sunflower (Helianthus annuus); experiment: Test B pre-/postemergence plant response; conditions: Preemergence
Source text: as §2, §3, §4

[15] = Flood (flooded paddy test), 62 g ai/ha, scale 0 to 100, 0 no effect, 100 complete control
[16] = Flood (flooded paddy test), 125 g ai/ha, scale 0 to 100, 0 no effect, 100 complete control
[17] = Flood (flooded paddy test), 250 g ai/ha, scale 0 to 100, 0 no effect, 100 complete control
[18] = Flood, 31 g ai/ha, scale 0 to 100
[19] = Preemergence, 31 g ai/ha, 0 to 100 scale, 0 no effect, 100 complete control
[20] = Preemergence, 62 g ai/ha, scale 0 to 100
[21] = Preemergence, 125 g ai/ha, scale 0 to 100
[22] = Preemergence, 250 g ai/ha, scale 0 to 100
[23] = 31 g ai/ha, 0 to 100 scale, 0 no effect, 100 complete control
[24] = 8 g ai/ha, postemergence, 0-100 scale
[25] = Postemergence, 16 g ai/ha, scale 0 to 100
[26] = Postemergence, 31 g ai/ha, scale 0 to 100
[27] = Postemergence, 62 g ai/ha, scale 0 to 100, 0 no effect, 100 complete control
[28] = Preemergence, 31 g ai/ha, scale 0 to 100 (0 no effect, 100 complete control)
[29] = Preemergence, 62 g ai/ha, 0 to 100 scale, 0 no effect, 100 complete control
[30] = Preemergence, 8 g ai/ha, scale 0 to 100
[31] = Preemergence, 16 g ai/ha, scale 0 to 100
[32] = 16 g ai/ha, postemergence, 0-100 scale
[33] = 31 g ai/ha, scale 0 to 100 (0 no effect, 100 complete control)
[34] = 62 g ai/ha, 0 to 100 scale, 0 no effect, 100 complete control

## Cc1cc(-c2ccc(C(F)(F)F)cc2)nn1-c1c(OC(=O)C(C)(C)C)cnn(C)c1=O [Compound 2]
[1]; [15]
  Plant response rating, Ducksalad: 0
[1]; [16]
  Plant response rating, Ducksalad: 0
[1]; [17]
  Plant response rating, Ducksalad: 40
[1]; [18]
  Plant response rating, Ducksalad: 0
[2]; [15]
  Plant response rating, Rice: 15
[2]; [16]
  Plant response rating, Rice: 15
[2]; [17]
  Plant response rating, Rice: 45
[2]; [18]
  Plant response rating, Rice: 0
[3]; [19]
  Plant response rating, Crabgrass, Large: 98
[3]; [20]
  Plant response rating, Crabgrass, Large: 100
[3]; [21]
  Plant response rating, Crabgrass, Large: 100
[3]; [22]
  Plant response rating, Crabgrass, Large: 100
[4]; [19]
  Plant response rating, Cupgrass, Woolly: 70
[4]; [20]
  Plant response rating, Cupgrass, Woolly: 80
[4]; [21]
  Plant response rating, Cupgrass, Woolly: 80
[4]; [22]
  Plant response rating, Cupgrass, Woolly: 100
[5]; [19]
  Plant response rating, Ragweed: 0
[5]; [20]
  Plant response rating, Ragweed: 0
[5]; [21]
  Plant response rating, Ragweed: 0
[5]; [22]
  Plant response rating, Ragweed: 0
[6]; [19]
  Plant response rating, Foxtail, Giant: 100
[6]; [20]
  Plant response rating, Foxtail, Giant: 100
[6]; [21]
  Plant response rating, Foxtail, Giant: 100
[6]; [22]
  Plant response rating, Foxtail, Giant: 100
[7]; [19]
  Plant response rating, Foxtail, Green: 90
[7]; [20]
  Plant response rating, Foxtail, Green: 95
[7]; [21]
  Plant response rating, Foxtail, Green: 100
[7]; [22]
  Plant response rating, Foxtail, Green: 100
[8]; [19]
  Plant response rating, Goosegrass: 50
[8]; [20]
  Plant response rating, Goosegrass: 60
[8]; [21]
  Plant response rating, Goosegrass: 95
[8]; [22]
  Plant response rating, Goosegrass: 95
[9]; [19]
  Plant response rating, Pigweed: 0
[9]; [20]
  Plant response rating, Pigweed: 0
[9]; [21]
  Plant response rating, Pigweed: 70
[9]; [22]
  Plant response rating, Pigweed: 70
[10]; [19]
  Plant response rating, Velvetleaf: 0
[10]; [20]
  Plant response rating, Velvetleaf: 0
[10]; [21]
  Plant response rating, Velvetleaf: 0
[10]; [22]
  Plant response rating, Velvetleaf: 10
[11]; [23]
  Plant response rating, Nightshade, E. B.: 0
[11]; 62 g ai/ha, scale 0 to 100
  Plant response rating, Nightshade, E. B.: 0
[11]; 125 g ai/ha, scale 0 to 100
  Plant response rating, Nightshade, E. B.: 0
[11]; 250 g ai/ha, scale 0 to 100
  Plant response rating, Nightshade, E. B.: 0
[12]; [19]
  Plant response rating, Oat, Wild: 0
[12]; [20]
  Plant response rating, Oat, Wild: 50
[12]; [22]
  Plant response rating, Oat, Wild: 60
[13]; [20]
  Plant response rating, Johnsongrass: 80
[13]; [22]
  Plant response rating, Johnsongrass: 80
[14]; [23]
  Plant response rating, Sunflower: 0
[14]; 62 g ai/ha, scale 0 to 100
  Plant response rating, Sunflower: 0
[14]; 125 g ai/ha, scale 0 to 100
  Plant response rating, Sunflower: 0
[14]; 250 g ai/ha, scale 0 to 100
  Plant response rating, Sunflower: 0

## Cc1cc(-c2ccc(Cl)cc2)nn1-c1c(OC(=S)N(C)C)cnn(C)c1=O [Compound 69]
[1]; [15]
  Plant response rating, Ducksalad: 0
[1]; [16]
  Plant response rating, Ducksalad: 0
[1]; [17]
  Plant response rating, Ducksalad: 0
[1]; [18]
  Plant response rating, Ducksalad: 0
[2]; [15]
  Plant response rating, Rice: 0
[2]; [16]
  Plant response rating, Rice: 0
[2]; [17]
  Plant response rating, Rice: 0
[2]; [18]
  Plant response rating, Rice: 0
[3]; [24]
  Crabgrass, Large plant response rating: 55
[3]; [25]
  Plant response rating, Crabgrass, Large: 75
[3]; [26]
  Plant response rating, Crabgrass, Large: 98
[3]; [27]
  Plant response rating, Crabgrass, Large: 100
[3]; [28]
  Plant response rating, Crabgrass, Large: 0
[3]; [29]
  Plant response rating, Crabgrass, Large: 0
[3]; [30]
  Crabgrass, Large plant response rating: 0
[3]; [31]
  Crabgrass, Large plant response rating: 0
[4]; [24]
  Cupgrass, Woolly plant response rating: 20
[4]; [25]
  Plant response rating, Cupgrass, Woolly: 90
[4]; [26]
  Plant response rating, Cupgrass, Woolly: 95
[4]; [27]
  Plant response rating, Cupgrass, Woolly: 100
[4]; [28]
  Plant response rating, Cupgrass, Woolly: 0
[4]; [29]
  Plant response rating, Cupgrass, Woolly: 85
[4]; [30]
  Cupgrass, Woolly plant response rating: 0
[4]; [31]
  Cupgrass, Woolly plant response rating: 0
[5]; [24]
  Ragweed plant response rating: 0
[5]; [32]
  Ragweed plant response rating: 0
[5]; [26]
  Plant response rating, Ragweed: 0
[5]; [27]
  Plant response rating, Ragweed: 0
[5]; [28]
  Plant response rating, Ragweed: 100
[5]; [29]
  Plant response rating, Ragweed: 100
[5]; [30]
  Ragweed plant response rating: 0
[5]; [31]
  Ragweed plant response rating: 98
[6]; [24]
  Foxtail, Giant plant response rating: 60
[6]; [25]
  Plant response rating, Foxtail, Giant: 85
[6]; [26]
  Plant response rating, Foxtail, Giant: 100
[6]; [27]
  Plant response rating, Foxtail, Giant: 100
[6]; [28]
  Plant response rating, Foxtail, Giant: 0
[6]; [29]
  Plant response rating, Foxtail, Giant: 0
[6]; [30]
  Foxtail, Giant plant response rating: 0
[6]; [31]
  Foxtail, Giant plant response rating: 0
[7]; [24]
  Foxtail, Green plant response rating: 60
[7]; [25]
  Plant response rating, Foxtail, Green: 80
[7]; [26]
  Plant response rating, Foxtail, Green: 90
[7]; [27]
  Plant response rating, Foxtail, Green: 95
[7]; [28]
  Plant response rating, Foxtail, Green: 40
[7]; [29]
  Plant response rating, Foxtail, Green: 100
[7]; [30]
  Foxtail, Green plant response rating: 0
[7]; [31]
  Foxtail, Green plant response rating: 0
[8]; [24]
  Goosegrass plant response rating: 60
[8]; [32]
  Goosegrass plant response rating: 70
[8]; [26]
  Plant response rating, Goosegrass: 75
[8]; [27]
  Plant response rating, Goosegrass: 90
[8]; [28]
  Plant response rating, Goosegrass: 0
[8]; [29]
  Plant response rating, Goosegrass: 0
[8]; [30]
  Goosegrass plant response rating: 0
[8]; [31]
  Goosegrass plant response rating: 0
[9]; [24]
  Pigweed plant response rating: 0
[9]; [32]
  Pigweed plant response rating: 0
[9]; [26]
  Plant response rating, Pigweed: 0
[9]; [27]
  Plant response rating, Pigweed: 0
[9]; [28]
  Plant response rating, Pigweed: 0
[9]; [29]
  Plant response rating, Pigweed: 0
[9]; [30]
  Pigweed plant response rating: 0
[9]; [31]
  Pigweed plant response rating: 0
[10]; [24]
  Velvetleaf plant response rating: 0
[10]; [32]
  Velvetleaf plant response rating: 0
[10]; [26]
  Plant response rating, Velvetleaf: 0
[10]; [27]
  Plant response rating, Velvetleaf: 0
[10]; [28]
  Plant response rating, Velvetleaf: 0
[10]; [29]
  Plant response rating, Velvetleaf: 0
[10]; [30]
  Velvetleaf plant response rating: 0
[10]; [31]
  Velvetleaf plant response rating: 0
[11]; [33]
  Plant response rating, Nightshade, E. B.: 0
[11]; [34]
  Plant response rating, Nightshade, E. B.: 0
[11]; 8 g ai/ha, scale 0 to 100
  Nightshade, E. B. plant response rating: 0
[11]; 16 g ai/ha, scale 0 to 100
  Nightshade, E. B. plant response rating: 0
[12]; [24]
  Oat, Wild plant response rating: 20
[12]; [32]
  Oat, Wild plant response rating: 40
[12]; [26]
  Plant response rating, Oat, Wild: 90
[12]; [27]
  Plant response rating, Oat, Wild: 90
[12]; [28]
  Plant response rating, Oat, Wild: 20
[12]; [29]
  Plant response rating, Oat, Wild: 40
[12]; [30]
  Oat, Wild plant response rating: 0
[12]; [31]
  Oat, Wild plant response rating: 0
[13]; [24]
  Johnsongrass plant response rating: 60
[13]; [32]
  Johnsongrass plant response rating: 65
[13]; [26]
  Plant response rating, Johnsongrass: 70
[13]; [27]
  Plant response rating, Johnsongrass: 75
[13]; [28]
  Plant response rating, Johnsongrass: 0
[13]; [29]
  Plant response rating, Johnsongrass: 0
[13]; [30]
  Johnsongrass plant response rating: 0
[13]; [31]
  Johnsongrass plant response rating: 0
[14]; [33]
  Plant response rating, Sunflower: 0
[14]; [34]
  Plant response rating, Sunflower: 0
[14]; 8 g ai/ha, scale 0 to 100
  Sunflower plant response rating: 0
[14]; 16 g ai/ha, scale 0 to 100
  Sunflower plant response rating: 0
